Assay results published in patent US20190359941A1, “SUBSTITUTED AZOLE DERIVATIVES FOR GENERATION, PROLIFERATION AND DIFFERENTIATION OF HEMATOPOIETIC STEM AND PROGENITOR CELLS” (NATIONAL UNIVERSITY OF SINGAPORE, priority 2016, published 2019).
“Also recorded” adds a separate entry of the source. Read-outs that look alike come from different tables or passages of the source.

Columns and labels:
[1] = system: hematopoietic progenitor cells (HPC: CD45+CD34+CD38−CD45RA−); assay: Ex vivo expansion of hematopoietic progenitor cells from non-enriched UCB mononuclear cells; conditions: for relative effectiveness in inducing ex vivo expansion of HPC/HSPC (in words): among all the compounds screened; for enhancement of HPC expansion compared to cytokine control: 11 days (FIG. 9A)
UCB-MNC expanded cells = conditions: 5.0 μM; ACF; 11 days (FIG. 13E)
Description: UCB-MNC samples were fixed with modified Carnoy's fixative (Leica Biosystems, Germany) and placed onto glass microscope slides, and then dehydrated through an ethanol (Sigma-Aldrich, USA) series (70%, 85% and 100%) for 2 minutes followed by air-drying.
FISH assays were carried out using a panel of probes (Abbott Molecular, USA) comprising LSI D7S486 SpectrumOrange™/CEP 7 SpectrumGreen™, CEP 8 SpectrumAqua™/LSI MYC SpectrumOrange™, LSI CDKN2A SpectrumOrange™/CEP 9 SpectrumGreen™, LSI ABL1 SpectrumOrange™/BCR SpectrumGreen™ dual fusion translocation probe, LSI MLL dual color break-apart probe, LSI ETV6 SpectrumGreen™/RUNX1 SpectrumOrange™ extra signal dual color translocation probe, and LSI TP53 SpectrumOrange™/CEP 17 SpectrumGreen™ probe set. The FISH probes were applied to the fixed cells and co-denatured at 75° C., followed by an overnight hybridization at 37° C. Washes were performed and the slide was counterstained with DAPI anti-fade solution (Vectashield, Vector Laboratories, USA) and analyzed using an epi-fluorescence microscope (Leica, Germany).
Signals from 100 non-overlapping nuclei were enumerated for loss of LSI D7S486, trisomy 8, loss of CDKN2A, translocation involving ABL1 and BCR, MLL break-apart, translocation involving ETV6 and RUNX1, and loss of TP53. […]

[2] = system: HSC2 (CD45+CD34+CD38−CD45RA−CD90+CD49f+); assay: Ex vivo expansion of HSC2 from UCB-MNC; conditions: 5.0 μM; SFEM; over 10 days (FIG. 13C)
Description: Mononuclear cells (MNC) were isolated from the fresh UCB by density gradient centrifugation using Ficoll-Histopaque™ Premium (GE Healthcare, UK). Counted UCB-MNC was cryopreserved in 90% v/v autologous plasma with 10% v/v dimethyl-sulfoxide (DMSO) (Sigma Aldrich, USA) for subsequent usage. UCB-MNC was thawed using human serum albumin (25% v/v) (Health Sciences Authority, Singapore) and Dextran 40 (75% v/v) (Hospira, USA). […] For certain experiments, cell cultures were initiated with purified populations such as early (CD45+CD34+CD38−) or late (CD45+CD34+CD38+) progenitor cells at optimal plating concentration of 5.0×10^4 cells/ml or 2.0×10^6 cells/ml, respectively. Such pure populations were obtained by labeling the frozen-thawed, non-enriched UCB-MNC using fluorescence conjugated antibodies followed by fluorescence activated cell sorting (FACS). The substituted azole-based small molecules dissolved in DMSO were added to the cultures at an empirically determined optimal concentration of 5.0 μM. […]
Cell cultures were maintained in a humidified, 5% carbon dioxide incubator at 37° C. for the required duration. […] The extracted cells were counted using an automated differential hematology cell counter (COULTER® AcT™ diff Hematology Analyzer, Beckman Coulter Inc, USA) and re-suspended in DPBS for subsequent in vitro analysis or transplantation in mice. […]

CD34+ cells = conditions: 5.0 μM; 11 days (FIG. 17H)
[3] = system: CD45+ leukocytes of UCB-MNC; conditions: 5.0 μM; 72 hours / day 3; frozen-thawed MNC (FIG. 7)
Description: SB203580, DMSO and cytokines alone in serum-free expansion media (SFEM) served as the reference compound, vehicle and blank control, respectively. Data represents mean±SEM for n=3.
Annexin-V-FITC (Beckman Coulter, Inc., USA), 7-AAD (Beckman Coulter, Inc., USA) and CD45-PE-Cy7 were used for CD45+ cell viability analysis.
All compounds were assessed for their ability to maintain the viability of CD45+ leukocytes using Annexin V and 7-AAD. Induction of apoptosis in the CD45+ cells during ex vivo cultures limits expansion of HSPC.

[4] = system: colony forming unit (CFU) - granulocyte, macrophage (GM); conditions: 5.0 μM; SFEM; 10 days (FIG. 9B)
Description: Colony-forming units (CFU) of granulocyte-monocyte (GM) from freshly thawed UCB-MNC or 11 days expanded cells of the mentioned cell cultures were evaluated. Duplicates of freshly thawed UCB-MNC (5,000 and 10,000 cells) and expanded cells (1,000 and 5,000 cells) were cultured in 35 mm petri dishes (BD Falcon, USA) in 1.1 mL of hematopoietic stem cell (HSC)-CFU complete media with erythropoietin (EPO) (Miltenyi Biotec, Germany) without any further media manipulation. After 14-16 days in culture in a humidified environment at 37° C. and 5% CO2, colonies were scored and pictured using a SZ61 Olympus microscope equipped with charge-coupled device (CCD) camera (Olympus Europa GmbH, Germany).

[5] = system: total nucleated cells (TNC); conditions: for expansion of TNC reduced, compared to 5.0 μM: 11 days (FIG. 9A)
Description: UCB was obtained through Singapore Cord Blood Bank (SCBB), from donated units failing to meet the criteria for clinical banking. Prior consent was obtained from the donating mothers and the Research Advisory Ethics Committee of the SCBB, along with the Institutional Review Boards of National University of Singapore (NUS), and Singapore General Hospital (SGH) approved the usage of the samples. Mononuclear cells (MNC) were isolated from the fresh UCB by density gradient centrifugation using Ficoll-Histopaque™ Premium (GE Healthcare, UK). Counted UCB-MNC was cryopreserved in 90% v/v autologous plasma with 10% v/v dimethyl-sulfoxide (DMSO) (Sigma Aldrich, USA) for subsequent usage. UCB-MNC was thawed using human serum albumin (25% v/v) (Health Sciences Authority, Singapore) and Dextran 40 (75% v/v) (Hospira, USA). […] For certain experiments, cell cultures were initiated with purified populations such as early (CD45+CD34+CD38−) or late (CD45+CD34+CD38+) progenitor cells at optimal plating concentration of 5.0×10^4 cells/ml or 2.0×10^6 cells/ml, respectively. Such pure populations were obtained by labeling the frozen-thawed, non-enriched UCB-MNC using fluorescence conjugated antibodies followed by fluorescence activated cell sorting (FACS). The substituted azole-based small molecules dissolved in DMSO were added to the cultures at an empirically determined optimal concentration of 5.0 μM. UCB-MNC cultures devoid of small molecules but supplemented with cytokines served as control, while cultures supplemented with cytokines and DMSO served as vehicle control.
Cell cultures for in vitro experiments were done in 6- or 24-well plates (BD Falcon, USA), while culturing for in vivo transplantation studies was carried out in T-175 flasks (Corning, USA). Cell cultures were maintained in a humidified, 5% carbon dioxide incubator at 37° C. for the required duration. For UCB expansion evaluation and animal experimentation, an established 10-11-day expansion protocol was used which included cytokine and small molecule replenishment on day 7. At completion of incubation, cells were aspirated from the culture-ware with subsequent rinsing by Dulbecco's phosphate buffered saline (DPBS) (Hyclone, USA). The extracted cells were counted using an automated differential hematology cell counter (COULTER® AcT™ diff Hematology Analyzer, Beckman Coulter Inc, USA) and re-suspended in DPBS for subsequent in vitro analysis or transplantation in mice.

CD34 cells = conditions: cited from earlier work
[6] = 5.0 μM, SFEM, 10 days (FIG. 8C)
[7] = IM-29 mediated expansion of UCB

Cc1cccc(-c2nc(-c3ccc4ccccc4c3F)[nH]c2-c2ccncc2)c1 [IM-04, 4-[2-(1-fluoronaphthalen-2-yl)-4-(m-tolyl)-1H-imidazol-5-yl]pyridine]
relative effectiveness in inducing ex vivo expansion of HPC/HSPC (in words) ([1]; 5.0 μM): second most effective compound

Fc1ccc(-c2nc(-c3ccc4ccccc4c3F)[nH]c2-c2ccncc2)cc1 [IM-29, 4-[2-(1-fluoronaphthalen-2-yl)-4(5)-(4-fluorophenyl)-1H-imidazol-5(4)-yl]pyridine]
FISH results with probes relating to hematological malignancies (UCB-MNC expanded cells): normal results | HSC2 expansion enhancement compared to cytokine-only control [2]: at least 7.5 fold | CD34+ cell expansion, fold higher compared to cytokine control cultures (CD34+ cells): approximately 1.9 fold | acute toxicity to UCB cells (CD45+ viability) [3]: minimal toxicity | expansion of colony forming units (CFU) compared to non-cultured cells [4]: at least 100 fold | enhancement of HPC expansion compared to cytokine control ([1]; 1.0 μM, ACF): 2.7 fold | enhancement effect for HPC expansion compared to cytokine control ([1]; 5.0 μM, 10 days (FIG. 8A)): 8 fold | boost of HPC expansion on increasing culturing period from 7 days to 9 days ([1]; 5.0 μM, ACF (FIG. 11)): at least 5 fold | expansion of HPC, IM-29 added at both day 0 and day 7 (Group 1) ([1]; 5.0 μM, ACF, 10 days (FIG. 12)): ≥ 450 fold | enhancement of HPC expansion compared to cytokine control ([1]; 5.0 μM, ACF): 3.6 fold | HPC-associated expression of CD45+CD34+CD38−CD45RA− [1, 6]: about 68% | HPC-associated expression, fold higher than cytokine control [1, 6]: 3 fold | expansion of HPC, IM-29 added at both day 0 and day 7 (Group 1) ([1]; 5.0 μM, SFEM, 10 days (FIG. 12)): at least 750 fold | enhancement of HPC expansion compared to cytokine control ([1]; 10.0 μM, ACF): 2.4 fold | HPC expansion reduced compared to Group 1 when IM-29 not replenished on day 7 (Group 2) ([1]; IM-29 at day 0 only, 10 days (FIG. 12)): at least 0.7 fold | expansion of HPC (summary) [1, 7]: at least 1,000 fold | HPC expansion with IM-29 and a single cytokine ([1]; S+IM, T+IM, F+IM or IG+IM (data not shown)): minimal expansion | HPC expansion, fold higher than the four cytokines culture ([1]; S+T+F+IG+IM-29 vs four cytokines, ACF, 11 days (FIG. 1)): at least 4.7 fold | HPC expansion ([1]; S+T+F+IM-29 5.0 μM, ACF, 11 days (FIG. 1)): 1265.2±39.1 fold | HPC expansion enhancement effect vs S+T+F ([1]; S+T+F+IM-29 vs S+T+F, ACF, 11 days (FIG. 1)): 2.6 fold | HPC expansion ([1]; SCF+TPO+FLT-3L+IGFBP-2+IM-29 5.0 μM, ACF, 11 days (FIG. 1)): 1513.9±6.4 fold | relative effectiveness in inducing ex vivo expansion of HPC/HSPC (in words) ([1]; 5.0 μM): most effective of those tested; also recorded: most effective compound | augmentation of HPC expansion when IM-29 is added to basal cocktail ([1]; basal cocktail S+IG+T, ACF, 11 days (FIG. 1)): two-fold | HPC expansion of Group 1, fold higher than cytokine control Group 3 ([1]; irrespective of basal culture media, 10 days (FIG. 12)): at least 12 fold | effect on expanding HSPC, IM-29 added only at day 7 (Group 4) ([1]; not added at start of culture, 10 days (FIG. 12)): negligible effect | HPC expansion with IM-29 alone ([1]; without any cytokines (data not shown)): did not support the expansion of HPC | expansion of TNC reduced, compared to 5.0 μM ([5]; 1.0 μM IM-29, ACF): 0.83 fold | increase of total nucleated cells (TNC) compared to starting cell number ([5]; 5.0 μM, ACF, by day 11 (FIG. 11)): about 6 fold | expansion of TNC reduced, compared to 5.0 μM ([5]; 10 μM IM-29, ACF): 0.70 fold | increase of total nucleated cells (summary) [5, 7]: at least 5 fold

NC(=O)c1cccnc1 [NAM, nicotinamide]
increase of CD34 cells (CD34 cells; over 21 days, Horwitz et al. 2014): 72 fold

Cc1cccc(-c2oc(-c3ccc4ccccc4c3F)nc2-c2ccncc2)c1 [OZ-07, 2-(1-fluoronaphthalen-2-yl)-4-(pyridin-4-yl)-5-(m-tolyl)oxazole]
relative effectiveness in inducing ex vivo expansion of HPC/HSPC (in words) ([1]; 5.0 μM): not optimally active

CC(C)n1cnc2c(NCCc3ccc(O)cc3)nc(-c3csc4ccccc34)nc21 [SR-1, stemregenin-1]
median CD34 expansion (CD34 cells; cultures lasting up to 15 days, Wagner et al. 2016): 330 fold

Fc1ccc(-c2nc(-c3ccc4ccccc4c3)[nH]c2-c2ccncc2)cc1 [ZQX-33, 4-[2-(naphthalen-2-yl)-4(5)-(4-fluorophenyl)-1H-imidazol-5(4)-yl]pyridine]
HPC expansion capacity reduced relative to IM-29 ([1]; naphthalen-2-yl instead of 1-fluoronaphthalen-2-yl at C2, P<0.001): at least 2 fold
